From article PMC10807440, “Engineering Novosphingobium aromaticivorans to produce cis,cis-muconic acid from biomass aromatics” (Applied and Environmental Microbiology, 2023)

Legend:
NadCD = target: T1, NadCD (Novosphingobium aromaticivorans, UniProt A4XDW1); assay: PCA to catechol conversion by LCMS; type: biochemical; conditions: 1 mM PCA, 0.1 µM enzyme, crude prFMN-containing E. coli lysate needed, 50 mM HEPES, 150 mM NaCl pH 7.5, room temperature (18 h endpoint assay)
T1 construct: gene Saro_3877; Saro_3877-78 cloned together in pVP302K (8x His tag), expressed in E. coli B834 pRARE2, Ni-NTA purified; with protocatechuate decarboxylase subunit D (4-hydroxybenzoate decarboxylase subunit D-like)
T1 sequence (A4XDW1 1-486): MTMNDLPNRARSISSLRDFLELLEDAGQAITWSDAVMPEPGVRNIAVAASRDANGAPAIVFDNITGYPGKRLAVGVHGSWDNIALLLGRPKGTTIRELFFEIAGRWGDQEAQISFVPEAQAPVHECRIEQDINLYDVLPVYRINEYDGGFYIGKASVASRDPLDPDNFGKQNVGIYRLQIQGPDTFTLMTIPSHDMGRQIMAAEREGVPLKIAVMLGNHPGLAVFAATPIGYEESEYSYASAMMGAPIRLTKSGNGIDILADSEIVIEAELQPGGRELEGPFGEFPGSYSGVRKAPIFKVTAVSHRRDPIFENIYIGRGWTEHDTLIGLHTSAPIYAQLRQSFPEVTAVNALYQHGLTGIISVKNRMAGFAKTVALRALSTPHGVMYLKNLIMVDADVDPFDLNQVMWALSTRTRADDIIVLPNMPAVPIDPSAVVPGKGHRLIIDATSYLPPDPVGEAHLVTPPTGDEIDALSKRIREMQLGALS
T1 sequence (A4XDW2 1-74 partner): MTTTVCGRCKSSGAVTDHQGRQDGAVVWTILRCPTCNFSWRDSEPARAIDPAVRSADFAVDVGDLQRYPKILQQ

NaCatA = target: T2, NaCatA (Novosphingobium aromaticivorans, UniProt A4XFH8); assay: ccMA formation by absorbance at […] nm; type: biochemical; conditions: 100 µM catechol, 0.5 µM enzyme, 50 mM HEPES, 150 mM NaCl pH 7.5, 28°C; O2 co-substrate
T2 construct: gene Saro_3830; pVP302K (8x His tag), expressed in E. coli B834 pRARE2 with Fe(II)SO4, Ni-NTA purified
T2 sequence (A4XFH8 1-298): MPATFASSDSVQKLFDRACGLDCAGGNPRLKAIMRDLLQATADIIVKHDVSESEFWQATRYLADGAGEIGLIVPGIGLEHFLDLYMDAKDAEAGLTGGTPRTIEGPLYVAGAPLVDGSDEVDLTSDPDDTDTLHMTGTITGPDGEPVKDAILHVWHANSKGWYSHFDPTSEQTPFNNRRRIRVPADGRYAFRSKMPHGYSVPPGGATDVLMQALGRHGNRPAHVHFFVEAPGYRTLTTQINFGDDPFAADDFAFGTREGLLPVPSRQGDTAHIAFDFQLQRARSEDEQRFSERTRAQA

SMILES	PCA to catechol conversion by LCMS (NadCD)	ccMA formation by absorbance at 260 nm (NaCatA)
O=C(O)c1ccc(O)c(O)c1 [PCA]	NadCD was mixed with PCA and with the crude E. coli lysate that contained prFMN	–
Oc1ccccc1O [catechol]	–	NaCatA catalyzes the intradiol cleavage of catechol to produce ccMA in vitro
